Assay results published in patent publication US5409956A, “Indan derivative and thromboxane antagonist containing the same” (Zeria Pharmaceutical Co., Ltd., priority 1991, dated 1995).

Columns and labels:
[1] = test system: U46619 induced contraction in rat aorta; assay: Inhibitory effect on U46619 induced contraction in rat aorta; type: cell-based, SD male rat; conditions: relaxation of contraction by 10^-7 M U46619, rat thoracic aorta, 37° C., logit method
Description: Inhibitory effect on U46619 induced contraction in rat aorta:
The sample was kept at 37° C., bubbled with 95% oxygen gas containing 5% CO2, and suspended in a 10 ml organ bath filled with a Krebs-Henseleit solution at 2 g resting tension. 10^-7 M of U46619 which is a stable active substance of TXA2 was added portionwise. After the contraction responses were stabilized, the test compound was added to the organ bath, and its antagonism was evaluated. A concentration-relaxation curve was obtained, to which was applied a logit method to obtain pIC50 values.

[2] = test system: Human platelet aggregation; assay: Human platelet aggregation inhibitory action (in vitro), U46619-induced; type: cell-based; conditions: human PRP, approximately 4×10^5 cells/ml, 1 μM U46619, 37° C., Born's method, read-out: IC50 (concentration required for inhibiting the platelet aggregation induced by 1 μM of U46619 by 50%)
Description: Human platelet aggregation inhibitory action (in vitro):
Blood samples were collected from healthy humans. 9 parts by volume of the collected blood was mixed with 1 part by volume of an aqueous 3.8%(W/v) trisodium citrate, and the mixture was subjected to centrifugal separation for collecting the supernatant-to prepare a platelet rich plasma (PRP). A further centrifugation was-performed to separate a platelet poor plasma (PPP). PRP was diluted with PPP to adjust the number of platelets to approximately 4×10^5 cells/ml. Subsequently, 200 micro liters of PRP were added with the […] and 25 micro liters of an equimolar aqueous sodium hydrogencarbonate solution, and stirred for 2 minutes at 37° C. Thereafter, U46619 was added thereto for inducing platelet aggregation. The platelet aggregation was measured in accordance with a Born's method ("Nature", vol 194, page 927 (1962)), and inhibition against the platelet aggregation was examined. The platelet aggregation inhibitory action of the test compounds was expressed as the IC50 value (concentration required for inhibiting the platelet aggregation induced by 1 μM of U46619 by 50%).

SMILES	IC50 [1]	IC50 [2]
O=C(O)Cc1ccc2c(c1)CC(CCNS(=O)(=O)c1ccccc1)C2 (stereo not shown) [Example 25, [2-(2-phenylsulfonylaminoethyl)indan-5-yl]acetic acid]	316 nM	2450 nM
O=C(O)COc1ccc2c(c1)CC(CNS(=O)(=O)c1ccc(Cl)cc1)C2 (stereo not shown) [Example 30, 2-[(4-chlorophenyl)sulfonylaminomethyl)indan-5-hydroxyacetic acid]		310 nM
O=C(O)Cc1ccc2c(c1)CC(CNS(=O)(=O)c1ccc(Cl)cc1)C2 (stereo not shown) [Example 24, [2-[(4-chlorophenyl)sulfonylaminomethyl)indan-5-yl]acetic acid]	3.02 nM	770 nM
O=C(O)Cc1ccc2c(c1)CC(CNS(=O)(=O)c1ccccc1)C2 (stereo not shown) [Example 1, [2-(phenylsulfonylaminomethyl)indan-5-yl]acetic acid]	12.9 nM	720 nM
O=C(O)c1ccc2c(c1)CC(CNS(=O)(=O)c1ccc(Cl)cc1)C2 (stereo not shown) [Example 33, [2-[(4-chlorophenyl)sulfonylaminomethyl]-indan-5-yl]carboxylic acid]		850 nM
O=C(O)CCC(=O)c1ccc2c(c1)CC(CNS(=O)(=O)c1ccc(Cl)cc1)C2 (stereo not shown) [Example 40]		1120 nM
O=C(O)COc1ccc(CCNS(=O)(=O)c2ccccc2)cc1 [Control compound, 4-(2-phenylsulfonylaminoethyl)phenoxy acetic acid, reference compound]	427 nM	2530 nM
O=C(O)c1ccc2c(c1)CC(CCNS(=O)(=O)c1ccc(Cl)cc1)C2 (stereo not shown) [Example 34, [2-[2-(4-chlorophenyl)sulfonylaminoethyl)indan-5-yl]-carboxylic acid]		600 nM
O=C(O)COc1ccc2c(c1)CC(CNS(=O)(=O)c1ccccc1)C2 (stereo not shown) [Example 29, 2-(phenylsulfonylaminomethyl)indan-5-hydroxyacetic acid]	31.6 nM	
